In the NIST ThermoML archive (doi:10.1021/je800110r):
Numbers after ± are expanded uncertainties.

Conditions: Liquid, Vibrating tube method

CCCCCCCCCC [decane]
Conditions | mass density [kg/m3]
313.15 K, 25586 kPa | 734.5 ± 2.1
313.15 K, 25902 kPa | 734.7 ± 2.1
313.15 K, 25935 kPa | 734.7 ± 2.1
313.15 K, 25969 kPa | 734.6 ± 2.1
313.15 K, 25993 kPa | 734.9 ± 2.1
313.15 K, 26027 kPa | 734.7 ± 2.1
313.15 K, 26065 kPa | 734.7 ± 2.1
313.15 K, 26104 kPa | 734.9 ± 2.1
313.15 K, 26144 kPa | 735 ± 2.1
313.15 K, 26173 kPa | 734.9 ± 2.1
313.15 K, 26208 kPa | 734.9 ± 2.1
313.15 K, 26233 kPa | 734.9 ± 2.1
313.15 K, 26272 kPa | 735 ± 2.1
313.15 K, 26306 kPa | 735 ± 2.1
313.15 K, 26341 kPa | 735 ± 2.1
313.15 K, 26370 kPa | 735.1 ± 2.1
313.15 K, 26410 kPa | 735 ± 2.1
313.15 K, 26440 kPa | 735.2 ± 2.1
313.15 K, 26475 kPa | 735.2 ± 2.1
313.15 K, 26510 kPa | 735.1 ± 2.1
313.15 K, 26557 kPa | 735.1 ± 2.1
313.15 K, 26582 kPa | 735.1 ± 2.1
313.15 K, 26614 kPa | 735.3 ± 2.1
313.15 K, 26655 kPa | 735.3 ± 2.1
313.15 K, 26690 kPa | 735.2 ± 2.1
313.15 K, 26722 kPa | 735.3 ± 2.1
313.15 K, 26763 kPa | 735.3 ± 2.1
313.15 K, 26799 kPa | 735.4 ± 2.1
313.15 K, 26842 kPa | 735.3 ± 2.1
313.15 K, 26874 kPa | 735.3 ± 2.1
313.15 K, 26911 kPa | 735.5 ± 2.1
313.15 K, 26941 kPa | 735.5 ± 2.1
313.15 K, 26969 kPa | 735.5 ± 2.1
313.15 K, 26998 kPa | 735.6 ± 2.1
313.15 K, 27035 kPa | 735.4 ± 2.1
313.15 K, 27058 kPa | 735.5 ± 2.1
313.15 K, 27874 kPa | 736 ± 2.1
313.15 K, 27972 kPa | 736 ± 2.1
313.15 K, 28011 kPa | 736.2 ± 2.1
313.15 K, 28036 kPa | 736 ± 2.1
313.15 K, 28071 kPa | 736.1 ± 2.1
313.15 K, 28101 kPa | 736.2 ± 2.1
313.15 K, 28131 kPa | 736.2 ± 2.1
313.15 K, 28162 kPa | 736.3 ± 2.1
313.15 K, 28202 kPa | 736.3 ± 2.1
313.15 K, 28237 kPa | 736.3 ± 2.1
313.15 K, 28272 kPa | 736.3 ± 2.1
313.15 K, 28297 kPa | 736.3 ± 2.1
313.15 K, 28327 kPa | 736.3 ± 2.1
313.15 K, 28372 kPa | 736.4 ± 2.1
313.15 K, 28403 kPa | 736.4 ± 2.1
313.15 K, 28449 kPa | 736.5 ± 2.1
313.15 K, 28480 kPa | 736.5 ± 2.1
313.15 K, 28515 kPa | 736.4 ± 2.1
313.15 K, 28542 kPa | 736.5 ± 2.1
313.15 K, 28578 kPa | 736.5 ± 2.1
313.15 K, 28619 kPa | 736.5 ± 2.1
313.15 K, 28645 kPa | 736.5 ± 2.1
313.15 K, 28692 kPa | 736.6 ± 2.1
313.15 K, 28723 kPa | 736.7 ± 2.1
313.15 K, 28750 kPa | 736.7 ± 2.1
313.15 K, 28791 kPa | 736.7 ± 2.1
313.15 K, 28828 kPa | 736.6 ± 2.1
313.15 K, 28860 kPa | 736.8 ± 2.1
313.15 K, 28902 kPa | 736.7 ± 2.1
313.15 K, 28945 kPa | 736.8 ± 2.1
313.15 K, 28971 kPa | 736.8 ± 2.1
313.15 K, 29019 kPa | 736.8 ± 2.1
313.15 K, 29061 kPa | 736.9 ± 2.1
313.15 K, 29168 kPa | 737 ± 2.1
313.15 K, 30647 kPa | 737.9 ± 2.1
313.15 K, 30676 kPa | 738 ± 2.1
313.15 K, 30710 kPa | 737.9 ± 2.1
313.15 K, 30738 kPa | 738 ± 2.1
313.15 K, 30777 kPa | 738 ± 2.1
313.15 K, 30816 kPa | 738.1 ± 2.1
313.15 K, 30856 kPa | 738.1 ± 2.1
313.15 K, 30889 kPa | 738.1 ± 2.1
313.15 K, 30929 kPa | 738 ± 2.1
313.15 K, 30974 kPa | 738.1 ± 2.1
313.15 K, 31089 kPa | 738.2 ± 2.1
313.15 K, 31432 kPa | 738.4 ± 2.1
313.15 K, 31467 kPa | 738.4 ± 2.1
313.15 K, 31515 kPa | 738.4 ± 2.1
313.15 K, 31562 kPa | 738.5 ± 2.1
313.15 K, 31610 kPa | 738.4 ± 2.1
313.15 K, 31646 kPa | 738.6 ± 2.1
313.15 K, 31694 kPa | 738.6 ± 2.1
313.15 K, 31736 kPa | 738.6 ± 2.1
313.15 K, 31766 kPa | 738.4 ± 2.1
313.15 K, 31815 kPa | 738.6 ± 2.1
313.15 K, 31856 kPa | 738.6 ± 2.1
313.15 K, 31901 kPa | 738.7 ± 2.1
313.15 K, 31947 kPa | 738.7 ± 2.1
313.15 K, 31981 kPa | 738.7 ± 2.1
313.15 K, 32023 kPa | 738.8 ± 2.1
313.15 K, 32070 kPa | 738.8 ± 2.1
313.15 K, 32100 kPa | 738.9 ± 2.1
313.15 K, 32135 kPa | 738.9 ± 2.1
313.15 K, 32176 kPa | 738.9 ± 2.1
313.15 K, 32213 kPa | 738.9 ± 2.1
313.15 K, 32253 kPa | 738.9 ± 2.1
313.15 K, 32294 kPa | 738.9 ± 2.1
313.15 K, 32345 kPa | 739 ± 2.1
313.15 K, 32379 kPa | 739 ± 2.1
313.15 K, 32413 kPa | 739 ± 2.1
313.15 K, 32459 kPa | 739.1 ± 2.1
313.15 K, 32491 kPa | 739.1 ± 2.1
313.15 K, 32528 kPa | 739.1 ± 2.1
313.15 K, 32561 kPa | 739.1 ± 2.1
313.15 K, 32592 kPa | 739.3 ± 2.1
313.15 K, 32633 kPa | 739.1 ± 2.1
313.15 K, 32666 kPa | 739.2 ± 2.1
313.15 K, 32704 kPa | 739.3 ± 2.1
313.15 K, 32737 kPa | 739.3 ± 2.1
313.15 K, 32770 kPa | 739.3 ± 2.1
313.16 K, 339 kPa | 714.8 ± 2
313.16 K, 365 kPa | 714.9 ± 2
313.16 K, 391 kPa | 715 ± 2
313.16 K, 423 kPa | 715 ± 2
313.16 K, 450 kPa | 714.9 ± 2
313.16 K, 478 kPa | 715 ± 2
313.16 K, 508 kPa | 715 ± 2
313.16 K, 548 kPa | 715.1 ± 2
313.16 K, 579 kPa | 715.1 ± 2
313.16 K, 595 kPa | 715.2 ± 2
313.16 K, 607 kPa | 715.1 ± 2
313.16 K, 620 kPa | 715 ± 2
313.16 K, 631 kPa | 715.1 ± 2
313.16 K, 651 kPa | 715.2 ± 2
313.16 K, 661 kPa | 715.1 ± 2
313.16 K, 673 kPa | 715.3 ± 2
313.16 K, 686 kPa | 715.2 ± 2
313.16 K, 699 kPa | 715.2 ± 2
313.16 K, 719 kPa | 715.2 ± 2
313.16 K, 733 kPa | 715.2 ± 2
